From the CheMixHub viscosity set
± gives the uncertainty stated by the source.

Assay: xn = mol fraction of the nth substance listed

SMILES: O=CN1CCOCC1 + CCc1ccccc1
- viscosity (298.15 K, 101.3 kPa, x2 = 0.03224): 6.848 ± 0.048 mPa·s
- viscosity (298.15 K, 101.3 kPa, x2 = 0.06252): 6.122 ± 0.043 mPa·s
- viscosity (298.15 K, 101.3 kPa, x2 = 0.08602): 5.678 ± 0.041 mPa·s
- viscosity (298.15 K, 101.3 kPa, x2 = 0.1584): 4.43 ± 0.033 mPa·s
- viscosity (298.15 K, 101.3 kPa, x2 = 0.2704): 3.151 ± 0.024 mPa·s
- viscosity (298.15 K, 101.3 kPa, x2 = 0.3512): 2.527 ± 0.02 mPa·s
- viscosity (298.15 K, 101.3 kPa, x2 = 0.4701): 1.841 ± 0.015 mPa·s
- viscosity (298.15 K, 101.3 kPa, x2 = 0.5569): 1.511 ± 0.012 mPa·s
- viscosity (298.15 K, 101.3 kPa, x2 = 0.6373): 1.261 ± 0.01 mPa·s
- viscosity (298.15 K, 101.3 kPa, x2 = 0.6888): 1.137 ± 0.009 mPa·s
- viscosity (298.15 K, 101.3 kPa, x2 = 0.7771): 0.986 ± 0.008 mPa·s
- viscosity (298.15 K, 101.3 kPa, x2 = 0.8636): 0.829 ± 0.007 mPa·s
- viscosity (298.15 K, 101.3 kPa, x2 = 0.9317): 0.713 ± 0.006 mPa·s

SMILES: CCCCCC(C)O (stereo unspecified) + CN(C)C=O
- viscosity (298.15 K, 101 kPa, x2 = 0.1086): 4.28 ± 0.1 mPa·s
- viscosity (298.15 K, 101 kPa, x2 = 0.153): 4 ± 0.09 mPa·s
- viscosity (298.15 K, 101 kPa, x2 = 0.24): 3.56 ± 0.08 mPa·s
- viscosity (298.15 K, 101 kPa, x2 = 0.3446): 3.15 ± 0.07 mPa·s
- viscosity (298.15 K, 101 kPa, x2 = 0.4409): 2.78 ± 0.06 mPa·s
- viscosity (298.15 K, 101 kPa, x2 = 0.5599): 2.35 ± 0.05 mPa·s
- viscosity (298.15 K, 101 kPa, x2 = 0.6544): 2.01 ± 0.05 mPa·s
- viscosity (298.15 K, 101 kPa, x2 = 0.7432): 1.68 ± 0.04 mPa·s
- viscosity (298.15 K, 101 kPa, x2 = 0.8428): 1.34 ± 0.03 mPa·s
- viscosity (298.15 K, 101 kPa, x2 = 0.9372): 1.03 ± 0.02 mPa·s
- viscosity (303.15 K, 101 kPa, x2 = 0.1086): 3.46 ± 0.08 mPa·s
- viscosity (303.15 K, 101 kPa, x2 = 0.153): 3.21 ± 0.07 mPa·s
- viscosity (303.15 K, 101 kPa, x2 = 0.24): 2.85 ± 0.07 mPa·s
- viscosity (303.15 K, 101 kPa, x2 = 0.3446): 2.52 ± 0.06 mPa·s
- viscosity (303.15 K, 101 kPa, x2 = 0.4409): 2.25 ± 0.05 mPa·s
- viscosity (303.15 K, 101 kPa, x2 = 0.5599): 1.92 ± 0.04 mPa·s
- viscosity (303.15 K, 101 kPa, x2 = 0.6544): 1.67 ± 0.04 mPa·s
- viscosity (303.15 K, 101 kPa, x2 = 0.7432): 1.42 ± 0.03 mPa·s
- viscosity (303.15 K, 101 kPa, x2 = 0.8428): 1.17 ± 0.03 mPa·s
- viscosity (303.15 K, 101 kPa, x2 = 0.9372): 0.93 ± 0.02 mPa·s
- viscosity (308.15 K, 101 kPa, x2 = 0.1086): 2.79 ± 0.06 mPa·s
- viscosity (308.15 K, 101 kPa, x2 = 0.153): 2.6 ± 0.1 mPa·s
- viscosity (308.15 K, 101 kPa, x2 = 0.24): 2.31 ± 0.05 mPa·s
- viscosity (308.15 K, 101 kPa, x2 = 0.3446): 2.04 ± 0.05 mPa·s
- viscosity (308.15 K, 101 kPa, x2 = 0.4409): 1.83 ± 0.04 mPa·s
- viscosity (308.15 K, 101 kPa, x2 = 0.5599): 1.58 ± 0.04 mPa·s
- viscosity (308.15 K, 101 kPa, x2 = 0.6544): 1.4 ± 0.1 mPa·s
- viscosity (308.15 K, 101 kPa, x2 = 0.7432): 1.22 ± 0.03 mPa·s
- viscosity (308.15 K, 101 kPa, x2 = 0.8428): 1.03 ± 0.02 mPa·s
- viscosity (308.15 K, 101 kPa, x2 = 0.9372): 0.84 ± 0.02 mPa·s
- viscosity (313.15 K, 101 kPa, x2 = 0.1086): 2.32 ± 0.05 mPa·s
- viscosity (313.15 K, 101 kPa, x2 = 0.153): 2.15 ± 0.05 mPa·s
- viscosity (313.15 K, 101 kPa, x2 = 0.24): 1.91 ± 0.04 mPa·s
- viscosity (313.15 K, 101 kPa, x2 = 0.3446): 1.69 ± 0.04 mPa·s
- viscosity (313.15 K, 101 kPa, x2 = 0.4409): 1.53 ± 0.04 mPa·s
- viscosity (313.15 K, 101 kPa, x2 = 0.5599): 1.34 ± 0.03 mPa·s
- viscosity (313.15 K, 101 kPa, x2 = 0.6544): 1.2 ± 0.1 mPa·s
- viscosity (313.15 K, 101 kPa, x2 = 0.7432): 1.07 ± 0.02 mPa·s
- viscosity (313.15 K, 101 kPa, x2 = 0.8428): 0.91 ± 0.02 mPa·s
- viscosity (313.15 K, 101 kPa, x2 = 0.9372): 0.77 ± 0.02 mPa·s

SMILES: CCCCCCCCCCCCCCCCCC + c1ccccc1
- viscosity (298 K, 101 kPa, x2 = 0.5): 2.123 ± 0.056 mPa·s
- viscosity (318 K, 101 kPa, x2 = 0.5): 1.501 ± 0.04 mPa·s

SMILES: CCC(=O)c1ccccc1 + CCOCCO
- viscosity (303.15 K, 101 kPa, x1 = 0.0756): 1.562 ± 0.064 mPa·s
- viscosity (303.15 K, 101 kPa, x1 = 0.1554): 1.555 ± 0.064 mPa·s
- viscosity (303.15 K, 101 kPa, x1 = 0.2397): 1.547 ± 0.064 mPa·s
- viscosity (303.15 K, 101 kPa, x1 = 0.3291): 1.54 ± 0.063 mPa·s
- viscosity (303.15 K, 101 kPa, x1 = 0.4239): 1.532 ± 0.063 mPa·s
- viscosity (303.15 K, 101 kPa, x1 = 0.5246): 1.526 ± 0.063 mPa·s
- viscosity (303.15 K, 101 kPa, x1 = 0.6319): 1.522 ± 0.063 mPa·s
- viscosity (303.15 K, 101 kPa, x1 = 0.7464): 1.517 ± 0.063 mPa·s
- viscosity (303.15 K, 101 kPa, x1 = 0.8688): 1.515 ± 0.063 mPa·s
- viscosity (308.15 K, 101 kPa, x1 = 0.0756): 1.466 ± 0.06 mPa·s
- viscosity (308.15 K, 101 kPa, x1 = 0.1554): 1.464 ± 0.06 mPa·s
- viscosity (308.15 K, 101 kPa, x1 = 0.2397): 1.462 ± 0.06 mPa·s
- viscosity (308.15 K, 101 kPa, x1 = 0.3291): 1.461 ± 0.06 mPa·s
- viscosity (308.15 K, 101 kPa, x1 = 0.4239): 1.461 ± 0.06 mPa·s
- viscosity (308.15 K, 101 kPa, x1 = 0.5246): 1.461 ± 0.06 mPa·s
- viscosity (308.15 K, 101 kPa, x1 = 0.6319): 1.462 ± 0.06 mPa·s
- viscosity (308.15 K, 101 kPa, x1 = 0.7464): 1.464 ± 0.061 mPa·s
- viscosity (308.15 K, 101 kPa, x1 = 0.8688): 1.466 ± 0.061 mPa·s
- viscosity (313.15 K, 101 kPa, x1 = 0.0756): 1.366 ± 0.056 mPa·s
- viscosity (313.15 K, 101 kPa, x1 = 0.1554): 1.369 ± 0.056 mPa·s
- viscosity (313.15 K, 101 kPa, x1 = 0.2397): 1.372 ± 0.056 mPa·s
- viscosity (313.15 K, 101 kPa, x1 = 0.3291): 1.376 ± 0.057 mPa·s
- viscosity (313.15 K, 101 kPa, x1 = 0.4239): 1.381 ± 0.057 mPa·s
- viscosity (313.15 K, 101 kPa, x1 = 0.5246): 1.387 ± 0.057 mPa·s
- viscosity (313.15 K, 101 kPa, x1 = 0.6319): 1.394 ± 0.058 mPa·s
- viscosity (313.15 K, 101 kPa, x1 = 0.7464): 1.401 ± 0.058 mPa·s
- viscosity (313.15 K, 101 kPa, x1 = 0.8688): 1.41 ± 0.058 mPa·s
- viscosity (318.15 K, 101 kPa, x1 = 0.0756): 1.279 ± 0.053 mPa·s
- viscosity (318.15 K, 101 kPa, x1 = 0.1554): 1.285 ± 0.053 mPa·s
- viscosity (318.15 K, 101 kPa, x1 = 0.2397): 1.291 ± 0.053 mPa·s
- viscosity (318.15 K, 101 kPa, x1 = 0.3291): 1.3 ± 0.053 mPa·s
- viscosity (318.15 K, 101 kPa, x1 = 0.4239): 1.309 ± 0.054 mPa·s
- viscosity (318.15 K, 101 kPa, x1 = 0.5246): 1.32 ± 0.055 mPa·s
- viscosity (318.15 K, 101 kPa, x1 = 0.6319): 1.331 ± 0.055 mPa·s
- viscosity (318.15 K, 101 kPa, x1 = 0.7464): 1.343 ± 0.056 mPa·s
- viscosity (318.15 K, 101 kPa, x1 = 0.8688): 1.357 ± 0.056 mPa·s
